Among the data in US9428504B2, “7-hydroxy-spiropipiperidine indolinyl antagonists of P2Y1 receptor” (BRISTOL-MYERS SQUIBB COMPANY, priority 2012, dated 2016) are IC50 and Ki values, retold here.

As a reminder, the IC50 is the concentration at which inhibition is half-maximal. One may read the Ki as the dissociation constant of the complex between target and ligand, obtained from inhibition or displacement.

Counter-ions that a name gives are not always drawn. Like-named read-outs stand apart in the source and are kept apart here.

For assay [1], the system named is human platelet rich plasma (PRP). In words: ADP induced platelet aggregation assay.
The target in assay [2] is cloned human P2Y1 receptors (Homo sapiens (Human), UniProt P47900). Put plainly: Binding Assay A: membrane binding assay, [33P] 2MeS-ADP. The source says:
A membrane binding assay was used to identify inhibitors of [^33P] […] The cDNA clone for human P2Y1 was obtained from Incyte Pharmaceuticals and its sequence confirmed by established techniques (for a compendium of techniques used see Ausubel, F. et al. Current Protocols in Molecular Biology, John Wiley and Sons, NY, N.Y. (1995)). The essential coding sequences were subcloned into pCDNA 3.1 (Invitrogen) to produce a P2Y1 expression construct. This construct was then transfected into the human embryonic kidney cell line HEK-293 and stable transfectants selected in GENETICIN® (G418 sulfate; Life Technologies). […] Membranes were prepared by growing HEK293 #49 in 150 mm dishes in DMEM/10% FBS in the presence of 1 mg/ml G418 until cells were 80-90% confluent. Plates were then washed with cold (4° C.) D-PBS twice and cells harvested by scraping into 10 mL D-PBS. Cells were pelleted by centrifugation (1,000 g, 10 min, 4° C.) and the resulting pellet resuspended in Lysis Buffer (10 mM Tris (7.4), 5 mM MgCl2 containing Complete protease inhibitor cocktail (Roche Cat #1873580) as recommended by the manufacturer). The suspension was then homogenized in a Dounce homogenizer (10-15 strokes; B pestle, on ice) and the homogenate spun at 1,000 g, 4° C., 5 min to pellet large debris. The supernatant was centrifuged at 150,000 g, 4° C., for 1 hour and the resulting membrane pellet resuspended in 0.5-1 mL of Buffer B (15 mM HEPES (7.4), 145 mM NaCl, 0.1 mM MgCl2, 5 mM EDTA, 5 mM KCl) and stored at −70° C. until used.
Binding reactions were performed in WGA FLASHPLATE®s (PerkinElmer Life Sciences, Cat # SMP105A) in a volume of 200 μL containing ˜45 fmol of P2Y1 receptor (5 μg of total protein), 0.5 nM [^33P] […] Reactions were allowed to proceed to completion at room temperature for 1 hour and then the aqueous solution aspirated. Plates were sealed and the residual [^33P] bound to the plate determined by scintillation counting.

The mark [3] stands for this setting: Homo sapiens, Platelet, read-out: PA IC50 (μM) @ 10 μM ADP, platelet aggregation induced by 10 μM ADP, human PRP.
[4] abbreviates: values marked *, WGA FlashPlate, [33P] 2MeS-ADP displacement, read-out: P2Y1 Ki (nM) *Using binding assay A.

Sequence of cloned human P2Y1 receptors (P47900 whole entry): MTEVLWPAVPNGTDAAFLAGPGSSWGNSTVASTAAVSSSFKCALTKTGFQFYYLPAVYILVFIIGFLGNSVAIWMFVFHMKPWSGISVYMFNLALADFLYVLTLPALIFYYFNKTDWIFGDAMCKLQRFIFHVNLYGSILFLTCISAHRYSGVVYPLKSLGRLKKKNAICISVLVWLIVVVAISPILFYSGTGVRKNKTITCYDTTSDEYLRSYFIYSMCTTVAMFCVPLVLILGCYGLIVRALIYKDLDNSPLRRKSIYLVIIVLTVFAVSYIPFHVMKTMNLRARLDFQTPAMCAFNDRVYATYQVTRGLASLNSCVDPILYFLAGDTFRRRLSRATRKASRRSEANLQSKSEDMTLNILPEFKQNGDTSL

As for `CC(C)N1CCC2(CC1)CN(c1ccccc1NC(=O)Nc1ccc(OC(F)(F)F)cc1)c1ccccc12` [Comparator 1, reference compound], the IC50 in assay [1] (setting [3]) amounted to 29.2 µM. Moreover, the Ki in assay [2] (setting [4]) stood at 300 nM. The matching figures for `CC(C)CN1CCC2(CC1)CN(c1ccccc1NC(=O)Nc1ccc(OC(F)(F)F)cc1)c1ccccc12` [Comparator 2, reference compound]: 8.8 µM and 20.2 nM. For the compound `CC(C)N1CCC2(CC1)CN(c1ncccc1NC(=O)Nc1ccc(OC(F)(F)F)cc1)c1ccccc12` [Comparator 3, reference compound], the inhibition constant (Ki) in assay [2] (setting [4]) amounted to 5300 nM. Turning to `CC(C)(C)CN1CCC2(CC1)CN(c1ccccc1NC(=O)Nc1ccc(OC(F)(F)F)cc1)c1c(O)cccc12` [Example 1, 1-(2-(7-Hydroxy-1′-neopentylspiro[indoline-3,4′-piperidine]-1-yl)phenyl)-3-(4-(trifluoromethoxy)phenyl)urea], in assay [1] (setting [3]), the IC50 came to 1.7 µM. Also, the inhibition constant Ki in assay [2] (setting [4]) amounted to 10.3 nM. As for `CC(C)(C)CN1CCC2(CC1)CN(c1ncccc1NC(=O)Nc1ccc(C(C)(C)C)cc1)c1c(O)ccc(C(F)(F)F)c12` [Example 13, 1-(4-tert-Butylphenyl)-3-(2-(7-hydroxy-1′-neopentyl-4-(trifluoromethyl)spiro[indoline-3,4′-piperidine]-1-yl)pyridin-3-yl)urea], the IC50 in assay [1] (setting [3]) was 0.5 µM. For the same compound, the Ki in assay [2] (setting [4]) was determined as 3.3 nM. In the case of `CC(C)(C)CN1CCC2(CC1)CN(c1ccccc1NC(=O)Nc1nc3ccc(Cl)cc3s1)c1c(O)ccc(F)c12` [Example 33, 1-(2-(7-Hydroxy-4-fluoro-1′-neopentylspiro[indoline-3,4′-piperidine]-1-yl)phenyl)-3-(6-chlorobenzo[d]thiazol-2-yl)urea], the IC50 in assay [1] (setting [3]) was 0.4 µM. Further, the inhibition constant (Ki) in assay [2] (setting [4]) stood at 3.7 nM. Take `Cc1ccc2nc(NC(=O)Nc3ccccc3N3CC4(CCN(CC(C)(C)C)CC4)c4c(F)ccc(O)c43)sc2c1` [Example 34, 1-(2-(7-Hydroxy-4-fluoro-1′-neopentylspiro[indoline-3,4′-piperidine]-1-yl)phenyl)-3-(6-methylbenzo[d]thiazol-2-yl)urea]: the IC50 in assay [1] (setting [3]) was 0.5 µM. The Ki in assay [2] (setting [4]) is 3.7 nM. Consider `CC(C)c1nsc(NC(=O)Nc2ccccc2N2CC3(CCN(CC(C)(C)C)CC3)c3c(F)ccc(O)c32)n1` [Example 35, 1-(2-(4-Fluoro-7-hydroxy-1′-neopentylspiro[indoline-3,4′-piperidine]-1-yl)phenyl)-3-(3-isopropyl-1,2,4-thiadiazol-5-yl)urea], for which the IC50 in assay [1] (setting [3]) was 0.3 µM. In assay [2] (setting [4]), the Ki amounted to 1.9 nM. Consider `Cc1nsc(NC(=O)Nc2ccccc2N2CC3(CCN(CC(C)(C)C)CC3)c3c(Cl)ccc(O)c32)n1` [Example 42, 1-(2-(4-Chloro-7-hydroxy-1′-neopentylspiro[indoline-3,4′-piperidine]-1-yl)phenyl)-3-(3-methyl-1,2,4-thiadiazol-5-yl)urea], for which the IC50 in assay [1] (setting [3]) amounted to 0.3 µM. Further, in assay [2] (setting [4]), the Ki turned out to be 3.3 nM.

Consider `CC(C)c1nsc(NC(=O)Nc2ccccc2N2CC3(CCN(CC(C)(C)C)CC3)c3c(Cl)ccc(O)c32)n1` [Example 43, 1-(2-(4-Chloro-7-hydroxy-1′-neopentylspiro[indoline-3,4′-piperidine]-1-yl)phenyl)-3-(3-isopropyl-1,2,4-thiadiazol-5-yl)urea], for which, in assay [1] (setting [3]), the half-inhibitory concentration (IC50) was 0.3 µM. Further, the Ki in assay [2] (setting [4]) is 4.4 nM. Turning to `CC(C)(C)CN1CCC2(CC1)CN(c1ccccc1NC(=O)Nc1nc3ccc(Cl)cc3s1)c1c(O)cccc12` [Example 75, 1-(6-Chlorobenzo[d]thiazol-2-yl)-3-(2-(7-hydroxy-1′-neopentylspiro [indoline-3,4′-piperidine]-1-yl)phenyl)urea], the IC50 in assay [1] (setting [3]) is 0.4 µM. The Ki in assay [2] (setting [4]) was 7.5 nM. For `CC(C)(C)CN1CCC2(CC1)CN(c1ccccc1NC(=O)Nc1nc3ccc(Cl)nc3s1)c1c(O)ccc(Cl)c12` [Example 167, 1-(2-(4-Chloro-7-hydroxy-1′-neopentylspiro[indoline-3,4′-piperidine]-1-yl)phenyl)-3-(5-chlorothiazolo[5,4-b]pyridin-2-yl)urea, methanesulfonic acid salt], the IC50 in assay [1] (read-out: PA IC50 (μM) @ 10 μM ADP, platelet aggregation induced by 10 μM ADP, human PRP) was 0.5 µM. Further, in assay [2], the Ki was 3.3 nM.
